# Source: PubChem BioAssay AID2060502 (Molecular Pharmacology Branch, DTP, NCI, 2025)
# System: 885724-159-R-J1-PDC complex spheroid viability
# Assay: Anticancer human tumor 885724-159-R-J1-PDC patient-derived pancreatic adenocarcinoma cell line growth inhibition [GQUAD]
# Details: for IC50: curve of first compound; for viability, T/C: stronger effect = lower value
# Summary of the method: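 Viability of tumor cells grown as complex spheroids with endothelial and stromal cells, exposed to drug combinations. Top concentration at or near clinical Cmax (else 10 microM), diluted in half-log increments.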
# [1] = second compound 0.0316 µM, first compound 0.0316 µM
# [2] = second compound 0.0316 µM, first compound 0.1 µM
# [3] = second compound 0.0316 µM, first compound 0.316 µM
# [4] = second compound 0.0316 µM, first compound 1 µM
# [5] = second compound 0.0316 µM, first compound 3.16 µM
# [6] = second compound 0.0316 µM, first compound 10 µM
# [7] = second compound 0.1 µM, first compound 0.0316 µM
# [8] = second compound 0.1 µM, first compound 0.1 µM
# [9] = second compound 0.1 µM, first compound 0.316 µM
# [10] = second compound 0.1 µM, first compound 1 µM
# [11] = second compound 0.1 µM, first compound 3.16 µM
# [12] = second compound 0.1 µM, first compound 10 µM
# [13] = second compound 0.316 µM, first compound 0.0316 µM
# [14] = second compound 0.316 µM, first compound 0.1 µM
# [15] = second compound 0.316 µM, first compound 0.316 µM
# [16] = second compound 0.316 µM, first compound 1 µM
# [17] = second compound 0.316 µM, first compound 3.16 µM
# [18] = second compound 0.316 µM, first compound 10 µM
# [19] = second compound 1 µM, first compound 0.0316 µM
# [20] = second compound 1 µM, first compound 0.1 µM
# [21] = second compound 1 µM, first compound 0.316 µM
# [22] = second compound 1 µM, first compound 1 µM
# [23] = second compound 1 µM, first compound 3.16 µM
# [24] = second compound 1 µM, first compound 10 µM
# [25] = second compound 3.16 µM, first compound 0.0316 µM
# [26] = second compound 3.16 µM, first compound 0.1 µM
# [27] = second compound 3.16 µM, first compound 0.316 µM
# [28] = second compound 3.16 µM, first compound 1 µM
# [29] = second compound 3.16 µM, first compound 3.16 µM
# [30] = second compound 3.16 µM, first compound 10 µM
# [31] = second compound 10 µM, first compound 0.0316 µM
# [32] = second compound 10 µM, first compound 0.1 µM
# [33] = second compound 10 µM, first compound 0.316 µM
# [34] = second compound 10 µM, first compound 1 µM
# [35] = second compound 10 µM, first compound 3.16 µM
# [36] = second compound 10 µM, first compound 10 µM
# 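Also: spheroids exposed to agents for seven days before readout.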
# 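For viability, T/C in this document: percent of vehicle control viability where 100% = DMSO wells.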
structure (smiles),measurement,setting,value
CC(=O)O[C@H]1C(=O)[C@@]2(C)[C@H]([C@H](OC(=O)c3ccccc3)[C@]3(O)C[C@H](OC(=O)[C@H](O)[C@@H](NC(=O)c4ccccc4)c4ccccc4)C(C)=C1C3(C)C)[C@]1(OC(C)=O)CO[C@@H]1C[C@@H]2O + Cc1cnc(CNC(=O)c2c(=O)c3ccc(N4CCCN(C)CC4)nc3n3c2sc2ccccc23)cn1,IC50,second compound 0.0316 µM,> 10 µM
same,IC50,second compound 0.1 µM,> 10 µM
same,IC50,second compound 0.316 µM,> 10 µM
same,IC50,second compound 1 µM,> 10 µM
same,IC50,second compound 3.16 µM,> 10 µM
same,IC50,second compound 10 µM,> 10 µM
same,"viability, T/C",[1],103%
same,"viability, T/C",[2],97.3%
same,"viability, T/C",[3],96.9%
same,"viability, T/C",[4],108%
same,"viability, T/C",[5],104%
same,"viability, T/C",[6],107%
same,"viability, T/C",[7],111%
same,"viability, T/C",[8],105%
same,"viability, T/C",[9],99.3%
same,"viability, T/C",[10],119%
same,"viability, T/C",[11],113%
same,"viability, T/C",[12],108%
same,"viability, T/C",[13],110%
same,"viability, T/C",[14],114%
same,"viability, T/C",[15],107%
same,"viability, T/C",[16],88.7%
same,"viability, T/C",[17],118%
same,"viability, T/C",[18],105%
same,"viability, T/C",[19],95.9%
same,"viability, T/C",[20],93.3%
same,"viability, T/C",[21],98.9%
same,"viability, T/C",[22],93.6%
same,"viability, T/C",[23],106%
same,"viability, T/C",[24],86%
same,"viability, T/C",[25],77%
same,"viability, T/C",[26],78.6%
same,"viability, T/C",[27],84.9%
same,"viability, T/C",[28],79.5%
same,"viability, T/C",[29],88.8%
same,"viability, T/C",[30],99.6%
same,"viability, T/C",[31],66%
same,"viability, T/C",[32],68.7%
same,"viability, T/C",[33],78.4%
same,"viability, T/C",[34],78.8%
same,"viability, T/C",[35],74.1%
same,"viability, T/C",[36],70.1%
COc1cccc2c1C(=O)c1c(O)c3c(c(O)c1C2=O)CC(O)(C(=O)CO)CC3OC1CC(N)C(O)C(C)O1 (stereo unspecified) + Cc1cnc(CNC(=O)c2c(=O)c3ccc(N4CCCN(C)CC4)nc3n3c2sc2ccccc23)cn1,IC50,second compound 0.0316 µM,2.42 µM
same,IC50,second compound 0.1 µM,2.03 µM
same,IC50,second compound 0.316 µM,1.78 µM
same,IC50,second compound 1 µM,1.34 µM
same,IC50,second compound 3.16 µM,1.05 µM
same,IC50,second compound 10 µM,0.889 µM
same,"viability, T/C",[1],118%
same,"viability, T/C",[2],99.5%
same,"viability, T/C",[3],97.7%
same,"viability, T/C",[4],79.2%
same,"viability, T/C",[5],39.8%
same,"viability, T/C",[6],3.19%
same,"viability, T/C",[7],106%
same,"viability, T/C",[8],109%
same,"viability, T/C",[9],99%
same,"viability, T/C",[10],83.1%
same,"viability, T/C",[11],29.6%
same,"viability, T/C",[12],2.62%
same,"viability, T/C",[13],96.9%
same,"viability, T/C",[14],93%
same,"viability, T/C",[15],89.2%
same,"viability, T/C",[16],62.6%
same,"viability, T/C",[17],35.8%
same,"viability, T/C",[18],4.79%
same,"viability, T/C",[19],89.7%
same,"viability, T/C",[20],88.8%
same,"viability, T/C",[21],85.2%
same,"viability, T/C",[22],57.2%
same,"viability, T/C",[23],24.1%
same,"viability, T/C",[24],2.16%
same,"viability, T/C",[25],88.1%
same,"viability, T/C",[26],84.8%
same,"viability, T/C",[27],73.2%
same,"viability, T/C",[28],53.6%
same,"viability, T/C",[29],17.4%
same,"viability, T/C",[30],0.96%
same,"viability, T/C",[31],72.2%
same,"viability, T/C",[32],80.4%
same,"viability, T/C",[33],74%
same,"viability, T/C",[34],46.4%
same,"viability, T/C",[35],12.4%
same,"viability, T/C",[36],0.74%
Nc1ccn(C2OC(CO)C(O)C2(F)F)c(=O)n1 (stereo unspecified) + Cc1cnc(CNC(=O)c2c(=O)c3ccc(N4CCCN(C)CC4)nc3n3c2sc2ccccc23)cn1,IC50,second compound 0.0316 µM,> 10 µM
same,IC50,second compound 0.1 µM,> 10 µM
same,IC50,second compound 0.316 µM,> 10 µM
same,IC50,second compound 1 µM,> 10 µM
same,IC50,second compound 3.16 µM,> 10 µM
same,IC50,second compound 10 µM,> 10 µM
same,"viability, T/C",[1],105%
same,"viability, T/C",[2],104%
same,"viability, T/C",[3],82%
same,"viability, T/C",[4],98.1%
same,"viability, T/C",[5],74.9%
same,"viability, T/C",[6],70.3%
same,"viability, T/C",[7],96.8%
same,"viability, T/C",[8],113%
same,"viability, T/C",[9],82.9%
same,"viability, T/C",[10],82.4%
same,"viability, T/C",[11],81.5%
same,"viability, T/C",[12],84.4%
same,"viability, T/C",[13],97%
same,"viability, T/C",[14],97.9%
same,"viability, T/C",[15],88.6%
same,"viability, T/C",[16],78.3%
same,"viability, T/C",[17],89.9%
same,"viability, T/C",[18],78.8%
same,"viability, T/C",[19],85.5%
same,"viability, T/C",[20],87.4%
same,"viability, T/C",[21],80.2%
same,"viability, T/C",[22],77%
same,"viability, T/C",[23],69.2%
same,"viability, T/C",[24],70.6%
same,"viability, T/C",[25],75%
same,"viability, T/C",[26],76.3%
same,"viability, T/C",[27],78%
same,"viability, T/C",[28],62.9%
same,"viability, T/C",[29],70.9%
same,"viability, T/C",[30],68.4%
same,"viability, T/C",[31],72.4%
same,"viability, T/C",[32],75.1%
same,"viability, T/C",[33],71.4%
same,"viability, T/C",[34],69.2%
same,"viability, T/C",[35],70.9%
same,"viability, T/C",[36],74.8%
